The source made the active and inactive calls.
Columns and labels:
[1] = biological target: Peroxisome proliferator-activated receptor gamma/Nuclear receptor coactivator 2 (Homo sapiens, UniProt P37231); assay type: functional;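 further: agonist potency for raising coactivator recruitment to the receptor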
[2] = biological target: Peroxisome proliferator-activated receptor gamma/Nuclear receptor coactivator 3 (Homo sapiens, UniProt P37231); assay type: functional;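 further: agonist potency for raising coactivator recruitment to the receptor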
Sequence of Peroxisome proliferator-activated receptor gamma/Nuclear receptor coactivator 3 (P37231 whole entry): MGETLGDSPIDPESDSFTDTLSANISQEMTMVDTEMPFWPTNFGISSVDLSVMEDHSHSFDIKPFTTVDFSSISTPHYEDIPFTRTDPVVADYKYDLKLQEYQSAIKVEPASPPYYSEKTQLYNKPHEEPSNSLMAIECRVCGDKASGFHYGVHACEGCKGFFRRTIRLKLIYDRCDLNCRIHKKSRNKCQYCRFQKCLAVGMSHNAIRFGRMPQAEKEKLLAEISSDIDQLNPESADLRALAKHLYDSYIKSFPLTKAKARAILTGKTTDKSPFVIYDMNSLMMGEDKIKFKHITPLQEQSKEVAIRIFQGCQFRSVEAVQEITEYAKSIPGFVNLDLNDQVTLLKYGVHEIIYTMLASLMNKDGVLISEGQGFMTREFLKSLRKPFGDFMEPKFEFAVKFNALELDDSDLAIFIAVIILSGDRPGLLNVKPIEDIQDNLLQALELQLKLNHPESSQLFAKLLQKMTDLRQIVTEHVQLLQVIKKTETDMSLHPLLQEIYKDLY
Sequence of Peroxisome proliferator-activated receptor gamma/Nuclear receptor coactivator 3 (Q9Y6Q9 whole entry, further chain): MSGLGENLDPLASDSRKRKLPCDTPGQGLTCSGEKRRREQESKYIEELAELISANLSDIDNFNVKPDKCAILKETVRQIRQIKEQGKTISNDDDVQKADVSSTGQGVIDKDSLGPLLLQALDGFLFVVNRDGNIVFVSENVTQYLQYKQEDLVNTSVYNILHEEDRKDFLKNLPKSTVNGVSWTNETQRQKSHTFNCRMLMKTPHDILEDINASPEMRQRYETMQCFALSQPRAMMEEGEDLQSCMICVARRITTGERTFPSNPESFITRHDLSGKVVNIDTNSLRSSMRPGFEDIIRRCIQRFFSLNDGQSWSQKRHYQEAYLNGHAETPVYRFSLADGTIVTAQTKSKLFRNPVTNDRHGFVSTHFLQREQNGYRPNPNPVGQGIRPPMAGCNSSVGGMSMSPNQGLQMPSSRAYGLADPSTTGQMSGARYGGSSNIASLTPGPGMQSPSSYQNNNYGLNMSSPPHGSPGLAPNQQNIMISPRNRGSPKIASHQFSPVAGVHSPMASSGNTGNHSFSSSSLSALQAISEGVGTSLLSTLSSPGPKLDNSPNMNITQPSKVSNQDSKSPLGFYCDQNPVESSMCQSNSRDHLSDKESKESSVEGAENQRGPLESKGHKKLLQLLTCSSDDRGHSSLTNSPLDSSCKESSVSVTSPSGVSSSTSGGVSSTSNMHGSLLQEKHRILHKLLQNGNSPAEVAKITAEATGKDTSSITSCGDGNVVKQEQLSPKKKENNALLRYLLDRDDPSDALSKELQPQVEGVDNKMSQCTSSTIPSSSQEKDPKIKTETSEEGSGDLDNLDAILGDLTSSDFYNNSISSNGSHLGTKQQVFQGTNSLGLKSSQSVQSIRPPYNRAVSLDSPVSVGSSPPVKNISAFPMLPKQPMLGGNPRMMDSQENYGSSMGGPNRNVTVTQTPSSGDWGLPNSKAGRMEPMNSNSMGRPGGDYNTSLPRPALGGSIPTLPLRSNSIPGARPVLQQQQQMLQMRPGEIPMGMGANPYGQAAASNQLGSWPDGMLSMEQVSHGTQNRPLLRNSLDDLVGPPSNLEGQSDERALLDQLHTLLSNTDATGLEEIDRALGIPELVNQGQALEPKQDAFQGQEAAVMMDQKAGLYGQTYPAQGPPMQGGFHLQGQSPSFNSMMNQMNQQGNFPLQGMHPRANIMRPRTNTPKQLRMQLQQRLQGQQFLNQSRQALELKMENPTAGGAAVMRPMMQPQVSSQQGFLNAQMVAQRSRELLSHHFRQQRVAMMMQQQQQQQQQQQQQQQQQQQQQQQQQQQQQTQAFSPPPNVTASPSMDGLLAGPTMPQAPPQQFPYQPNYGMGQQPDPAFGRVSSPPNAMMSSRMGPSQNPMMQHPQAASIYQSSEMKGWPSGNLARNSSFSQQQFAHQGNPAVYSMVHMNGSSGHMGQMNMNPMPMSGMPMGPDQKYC

[3] = biological target: Peroxisome proliferator-activated receptor gamma/Nuclear receptor coactivator 1 (Homo sapiens, UniProt P37231); assay type: functional;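 further: agonist potency as compounds enhance coactivator SRC-1 recruitment to PPARgamma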
[4] = biological target: T1, Corticotropin-releasing factor receptor 2/Corticotropin-releasing factor-binding protein (Homo sapiens, UniProt P24387+Q13324); assay: Dose Response confirmation of uHTS hits for small molecule antagonists of the CRF-binding protein and CRF-R2 receptor complex.; assay type: functional; conditions: read-out: IC50_Mean
T1 sequence (Q13324 whole entry): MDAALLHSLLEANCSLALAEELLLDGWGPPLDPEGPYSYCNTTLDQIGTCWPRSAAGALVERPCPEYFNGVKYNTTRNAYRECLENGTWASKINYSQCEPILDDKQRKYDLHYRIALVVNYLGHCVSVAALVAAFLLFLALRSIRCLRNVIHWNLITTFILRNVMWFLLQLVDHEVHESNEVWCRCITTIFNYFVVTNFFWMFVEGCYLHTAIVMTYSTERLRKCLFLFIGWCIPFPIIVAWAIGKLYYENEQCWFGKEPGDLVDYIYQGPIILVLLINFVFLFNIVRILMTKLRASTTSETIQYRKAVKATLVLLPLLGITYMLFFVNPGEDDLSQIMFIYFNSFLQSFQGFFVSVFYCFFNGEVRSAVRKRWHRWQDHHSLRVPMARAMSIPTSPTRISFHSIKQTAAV
T1 sequence (P24387 whole entry): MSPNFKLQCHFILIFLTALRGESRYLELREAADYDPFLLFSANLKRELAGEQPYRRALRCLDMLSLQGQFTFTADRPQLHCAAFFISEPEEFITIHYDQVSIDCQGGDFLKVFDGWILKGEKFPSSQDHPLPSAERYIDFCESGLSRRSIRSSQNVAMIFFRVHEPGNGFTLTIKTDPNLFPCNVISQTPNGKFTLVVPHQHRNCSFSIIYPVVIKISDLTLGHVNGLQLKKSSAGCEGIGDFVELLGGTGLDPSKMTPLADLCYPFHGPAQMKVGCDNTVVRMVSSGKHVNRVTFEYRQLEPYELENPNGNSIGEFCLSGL

[5] = viability of uninfected HEp-2 cells – cell-based, HTS, cytotoxicity control for RSV inhibitor project, dose response (AID 2410); assay type: functional; conditions: human respiratory syncytial virus
[6] = biological target: T1, Corticotropin-releasing factor receptor 2/Corticotropin-releasing factor-binding protein; assay: activators of CRF receptor 2 with binding protein – uHTS hits, confirmation (AID 602473); assay type: functional; conditions: read-out: EC50_Mean
[7] = blockers of CRF-binding protein–CRF-R2 complex – cell-based, uHTS hits, 384-well, dose response (AID 651639); assay type: functional, Homo sapiens; conditions: read-out: IC50_Mean
NADPH oxidase 1 = biological target: T2, NADPH oxidase 1 (Homo sapiens, UniProt Q9Y5S8); assay type: functional, cell-based;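 further: Cell-based assay with luminescence read-out, IC50 derived from inhibitor dose-response curves; intracellular ROS from endogenous NOX1 in intact HT29 colon cancer cells; potency of inhibitors that lower the ROS luminescence signal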
T2 sequence (Q9Y5S8 whole entry): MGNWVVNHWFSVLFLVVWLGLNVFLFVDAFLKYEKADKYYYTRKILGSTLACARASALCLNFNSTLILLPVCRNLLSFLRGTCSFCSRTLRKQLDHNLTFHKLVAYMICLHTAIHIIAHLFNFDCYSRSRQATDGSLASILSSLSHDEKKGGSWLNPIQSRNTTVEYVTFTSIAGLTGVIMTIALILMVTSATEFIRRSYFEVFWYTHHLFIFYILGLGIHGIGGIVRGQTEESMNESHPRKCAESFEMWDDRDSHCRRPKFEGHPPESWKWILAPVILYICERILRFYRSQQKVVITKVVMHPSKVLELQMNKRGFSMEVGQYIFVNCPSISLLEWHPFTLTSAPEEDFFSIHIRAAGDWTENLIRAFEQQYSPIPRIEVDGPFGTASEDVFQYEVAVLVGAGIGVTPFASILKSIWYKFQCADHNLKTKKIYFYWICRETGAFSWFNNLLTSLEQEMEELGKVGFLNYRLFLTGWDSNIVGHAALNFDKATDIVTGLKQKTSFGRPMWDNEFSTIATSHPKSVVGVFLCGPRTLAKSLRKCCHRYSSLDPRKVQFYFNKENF

[8] = viability loss of HPDE-C7K cells – cell-based, fluorescence, HTS, primary screen (AID 431); assay type: functional; conditions: Homo sapiens
[9] = biological target: T3, Heat shock factor protein 1 (Mus musculus, UniProt P38532); assay: decrease of HSF1-responsive luciferase luminescence – cell-based, NIH3T3, dose retest, confirmation (AID 2382); assay type: functional;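 further: NIH3T3 fibroblasts with HSF1-driven luciferase reporter stressed by proteasome inhibitor MG132; luminescence from HSF1-driven luciferase expression after 8 hours of MG132 stress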
T3 sequence (P38532 whole entry): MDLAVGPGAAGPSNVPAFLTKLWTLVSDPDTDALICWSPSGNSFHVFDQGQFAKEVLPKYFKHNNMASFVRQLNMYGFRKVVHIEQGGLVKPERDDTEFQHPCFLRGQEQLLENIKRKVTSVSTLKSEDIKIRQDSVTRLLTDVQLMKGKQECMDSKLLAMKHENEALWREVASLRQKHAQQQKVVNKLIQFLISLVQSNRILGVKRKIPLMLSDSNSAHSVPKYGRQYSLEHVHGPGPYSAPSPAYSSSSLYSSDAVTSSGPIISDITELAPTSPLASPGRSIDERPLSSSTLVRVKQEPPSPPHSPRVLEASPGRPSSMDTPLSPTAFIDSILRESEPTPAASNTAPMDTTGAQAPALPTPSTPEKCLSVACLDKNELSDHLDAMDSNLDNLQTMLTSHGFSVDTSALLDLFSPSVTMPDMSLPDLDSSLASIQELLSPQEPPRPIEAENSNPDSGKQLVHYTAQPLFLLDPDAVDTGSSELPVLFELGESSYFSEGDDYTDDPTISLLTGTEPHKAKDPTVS

HEK293 = assay: EBV LMP1 TES2 canonical NF-kB signalling blockers – cell-based, HEK293, luciferase, cherry-pick, dose response (AID 588343); assay type: functional; conditions: Homo sapiens
[10] = HPDE-C7 pancreatic duct cell viability loss – fluorescence, HTS (AID 430); assay type: functional, cell-based; conditions: Homo sapiens
[11] = biological target: T4, Rac GTPase-activating protein 1 (Homo sapiens, UniProt Q9H0H5); assay: blockers of MgcRacGAP-driven Rac1 GTP hydrolysis – biochemical, ADP Hunter fluorescence, primary and confirmatory, confirmation (AID 624330); assay type: functional
T4 sequence (Q9H0H5 whole entry): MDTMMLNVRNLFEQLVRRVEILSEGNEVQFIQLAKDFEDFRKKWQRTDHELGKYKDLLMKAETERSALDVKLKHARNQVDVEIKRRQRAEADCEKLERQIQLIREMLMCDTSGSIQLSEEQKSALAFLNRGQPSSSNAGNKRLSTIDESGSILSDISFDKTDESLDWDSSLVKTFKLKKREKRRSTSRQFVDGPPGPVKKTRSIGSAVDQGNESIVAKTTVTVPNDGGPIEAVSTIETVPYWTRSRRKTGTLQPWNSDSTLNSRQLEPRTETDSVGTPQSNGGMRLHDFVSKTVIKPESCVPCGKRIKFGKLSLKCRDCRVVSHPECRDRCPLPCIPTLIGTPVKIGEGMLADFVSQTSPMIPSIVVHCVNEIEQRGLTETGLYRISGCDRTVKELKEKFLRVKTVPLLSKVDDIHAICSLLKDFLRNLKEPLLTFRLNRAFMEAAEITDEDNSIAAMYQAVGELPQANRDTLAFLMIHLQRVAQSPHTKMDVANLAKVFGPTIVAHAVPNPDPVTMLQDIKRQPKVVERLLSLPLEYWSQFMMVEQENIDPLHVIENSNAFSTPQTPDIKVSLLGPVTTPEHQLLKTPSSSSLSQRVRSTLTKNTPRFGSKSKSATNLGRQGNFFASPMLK

[12] = Luminescence Cell-Based Dose Retest to Confirm Inhibitors of Cancer Stem Cells. [Related pubchem assays (depositor defined):AID2717, AID2721]; assay type: functional; conditions: Homo sapiens
INS1 = assay: INS-1E survival protection against cytokine death – cell-based, luminescence, retest, dose response (AID 449756); assay type: functional; conditions: Rattus norvegicus;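 further: cell death triggered by IL-1 beta plus TNF-alpha plus IFN-gamma mixture; protective hits raise ATP signal compared with cytokine alone wells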
[13] = tested on: Streptococcus sp. 'group A'; assay: Streptococcus pyogenes SK(-)GAS viability under kanamycin – luminescence, BacTiterGlo, confirmation, counter-screen for streptokinase expression inhibitor project, dose response (AID 1900); assay type: functional, organism-based
Streptokinase A = biological target: T5, Streptokinase A (Streptococcus pyogenes serotype M1, UniProt P10520); assay: viability-normalized secreted streptokinase activity reduction – plasminogen activation absorbance, OD405, dose response (AID 1914); assay type: functional, Streptococcus pyogenes M1 GAS;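 further: secreted streptokinase activity via plasminogen activation per viability signal from cell pellet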
T5 sequence (P10520 whole entry): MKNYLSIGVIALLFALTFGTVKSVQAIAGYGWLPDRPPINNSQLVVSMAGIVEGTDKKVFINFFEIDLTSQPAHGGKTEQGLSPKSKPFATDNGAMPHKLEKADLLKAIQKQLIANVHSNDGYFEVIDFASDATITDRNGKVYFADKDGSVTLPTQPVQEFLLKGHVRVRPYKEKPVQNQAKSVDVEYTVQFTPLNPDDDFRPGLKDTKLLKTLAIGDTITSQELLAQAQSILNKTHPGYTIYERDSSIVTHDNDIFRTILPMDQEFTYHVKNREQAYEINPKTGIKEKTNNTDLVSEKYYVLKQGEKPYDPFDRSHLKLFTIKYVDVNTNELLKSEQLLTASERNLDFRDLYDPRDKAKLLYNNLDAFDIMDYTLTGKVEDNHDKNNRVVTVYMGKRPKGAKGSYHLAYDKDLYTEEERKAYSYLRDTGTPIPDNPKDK

Estrogen receptor = biological target: T6, Estrogen receptor (Homo sapiens, UniProt P03372);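 further: potency for inhibiting coactivator peptide recruitment to the receptor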
T6 sequence (P03372 whole entry): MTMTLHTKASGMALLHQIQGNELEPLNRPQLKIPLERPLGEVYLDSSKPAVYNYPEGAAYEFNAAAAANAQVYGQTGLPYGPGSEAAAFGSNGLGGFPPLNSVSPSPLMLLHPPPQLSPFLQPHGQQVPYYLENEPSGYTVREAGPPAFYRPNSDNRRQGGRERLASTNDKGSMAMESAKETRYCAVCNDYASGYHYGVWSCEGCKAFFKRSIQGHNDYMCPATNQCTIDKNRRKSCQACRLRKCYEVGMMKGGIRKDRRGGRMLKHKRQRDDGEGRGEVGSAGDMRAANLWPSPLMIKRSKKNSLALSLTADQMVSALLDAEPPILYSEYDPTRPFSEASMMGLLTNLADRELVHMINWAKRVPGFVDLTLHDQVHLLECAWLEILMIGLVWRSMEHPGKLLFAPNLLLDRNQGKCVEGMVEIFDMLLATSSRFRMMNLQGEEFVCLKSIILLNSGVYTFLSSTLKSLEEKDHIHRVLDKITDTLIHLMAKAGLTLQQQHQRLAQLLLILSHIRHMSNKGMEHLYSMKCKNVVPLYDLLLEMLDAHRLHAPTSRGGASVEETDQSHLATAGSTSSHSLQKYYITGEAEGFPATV

Streptococcus = assay: GAS UMAA2166 growth inhibition – luminescence, BacTiterGlo, counter-screen for streptokinase expression inhibitor project, dose response (AID 1915); assay type: functional, organism-based;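 further: potency for reduction of bacterial viability or growth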
Estrogen receptor beta [14] = biological target: T7, Estrogen receptor beta (Homo sapiens, UniProt Q92731); assay: blockers of SRC-3 recruitment to ERβ – biochemical, ELISA, streptavidin-HRP readout, orthogonal assay, confirmation (AID 1060)
T7 sequence (Q92731 whole entry): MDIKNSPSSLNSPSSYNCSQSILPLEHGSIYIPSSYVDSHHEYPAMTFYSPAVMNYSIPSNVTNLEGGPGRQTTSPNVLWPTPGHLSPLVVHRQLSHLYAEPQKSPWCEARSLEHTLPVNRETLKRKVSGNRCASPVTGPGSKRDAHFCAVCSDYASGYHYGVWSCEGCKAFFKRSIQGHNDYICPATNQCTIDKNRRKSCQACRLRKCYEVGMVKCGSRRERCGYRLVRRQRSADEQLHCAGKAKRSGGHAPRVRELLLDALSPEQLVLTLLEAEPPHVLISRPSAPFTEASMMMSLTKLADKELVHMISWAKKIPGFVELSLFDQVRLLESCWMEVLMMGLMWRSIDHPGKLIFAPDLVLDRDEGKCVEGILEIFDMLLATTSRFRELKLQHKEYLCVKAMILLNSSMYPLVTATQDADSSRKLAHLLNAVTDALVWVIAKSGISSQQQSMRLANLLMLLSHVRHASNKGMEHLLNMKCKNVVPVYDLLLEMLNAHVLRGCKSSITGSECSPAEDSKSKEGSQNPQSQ

Estrogen receptor beta [15] = biological target: T7, Estrogen receptor beta
Nonstructural protein 1 = Nonstructural protein 1 (Influenza A virus, UniProt Q194T2); assay type: functional, Influenza A virus (A/California/07/2009(H1N1))
Sequence of Nonstructural protein 1 (Q194T2 whole entry): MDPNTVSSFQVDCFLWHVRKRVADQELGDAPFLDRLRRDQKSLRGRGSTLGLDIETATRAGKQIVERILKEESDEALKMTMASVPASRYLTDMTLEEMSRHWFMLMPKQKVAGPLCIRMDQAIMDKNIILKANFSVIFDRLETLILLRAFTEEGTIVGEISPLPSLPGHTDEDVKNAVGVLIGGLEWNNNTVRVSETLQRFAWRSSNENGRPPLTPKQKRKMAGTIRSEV

Sequence of Peroxisome proliferator-activated receptor gamma/Nuclear receptor coactivator 2 (P37231 whole entry): as the sequence (P37231 whole entry) above
Sequence of Peroxisome proliferator-activated receptor gamma/Nuclear receptor coactivator 2 (Q15596 whole entry, further chain): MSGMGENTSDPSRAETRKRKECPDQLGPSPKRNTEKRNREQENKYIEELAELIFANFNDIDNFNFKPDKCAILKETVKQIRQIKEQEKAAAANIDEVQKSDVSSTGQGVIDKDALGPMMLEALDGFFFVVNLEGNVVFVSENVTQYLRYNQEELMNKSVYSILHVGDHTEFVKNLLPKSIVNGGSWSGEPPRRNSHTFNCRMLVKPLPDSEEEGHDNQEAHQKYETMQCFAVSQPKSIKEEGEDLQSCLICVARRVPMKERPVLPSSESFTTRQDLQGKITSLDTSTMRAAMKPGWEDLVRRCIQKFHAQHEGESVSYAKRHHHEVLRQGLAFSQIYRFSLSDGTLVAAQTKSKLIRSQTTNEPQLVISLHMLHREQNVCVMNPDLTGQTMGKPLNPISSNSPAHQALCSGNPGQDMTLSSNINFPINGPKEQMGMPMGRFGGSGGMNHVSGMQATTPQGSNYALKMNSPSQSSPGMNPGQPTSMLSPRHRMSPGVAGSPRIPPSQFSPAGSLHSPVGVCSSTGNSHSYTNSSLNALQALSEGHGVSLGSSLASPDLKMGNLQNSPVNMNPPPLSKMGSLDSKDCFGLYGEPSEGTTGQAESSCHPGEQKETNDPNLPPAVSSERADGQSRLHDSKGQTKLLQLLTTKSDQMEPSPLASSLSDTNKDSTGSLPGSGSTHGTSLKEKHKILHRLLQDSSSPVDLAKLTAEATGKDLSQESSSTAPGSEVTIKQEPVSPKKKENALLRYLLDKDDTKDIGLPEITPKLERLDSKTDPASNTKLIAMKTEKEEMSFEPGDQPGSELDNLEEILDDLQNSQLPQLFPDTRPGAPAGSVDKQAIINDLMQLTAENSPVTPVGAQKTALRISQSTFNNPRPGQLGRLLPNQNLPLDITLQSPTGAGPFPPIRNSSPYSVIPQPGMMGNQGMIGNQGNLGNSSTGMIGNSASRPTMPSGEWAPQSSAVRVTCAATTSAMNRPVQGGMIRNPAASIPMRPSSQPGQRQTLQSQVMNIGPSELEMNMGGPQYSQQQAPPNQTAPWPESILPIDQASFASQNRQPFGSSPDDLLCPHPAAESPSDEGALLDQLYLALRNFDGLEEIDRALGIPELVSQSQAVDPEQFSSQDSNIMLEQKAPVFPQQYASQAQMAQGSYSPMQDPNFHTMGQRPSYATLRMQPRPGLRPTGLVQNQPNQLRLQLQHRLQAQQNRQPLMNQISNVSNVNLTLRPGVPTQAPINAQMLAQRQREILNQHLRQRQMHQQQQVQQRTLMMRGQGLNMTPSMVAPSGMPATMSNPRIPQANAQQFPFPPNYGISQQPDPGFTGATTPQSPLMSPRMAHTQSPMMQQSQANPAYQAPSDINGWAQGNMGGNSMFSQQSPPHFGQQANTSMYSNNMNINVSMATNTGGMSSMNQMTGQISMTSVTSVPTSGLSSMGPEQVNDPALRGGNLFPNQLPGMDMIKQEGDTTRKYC

SMILES: COc1ccc(C(=O)NCC(=O)N=Nc2c(O)n(Cc3ccccc3)c3ccccc23)cc1OC
- EC50 [1]: > 79.4 µM (not active)
- EC50 [2]: > 79.4 µM (not active)
- EC50 [3]: > 79.4 µM (not active)

SMILES: Cc1ccccc1-c1nnc(S)n1/N=C/c1c(C)nn(-c2ccccc2)c1C
- IC50 [4]: 8.4 µM (active)
- IC50 (cells): 11.3 µM (active)
- CC50 [5]: 29.1 µM (active)
- EC50 [6]: > 53 µM (inactive)
- IC50 [7]: 12.3 µM (active)

SMILES: COc1cccc(-c2nc(-c3ccccc3)c(-c3ccccc3)[nH]2)c1
- IC50 (NADPH oxidase 1): > 17 µM (not active)

SMILES: CC(=O)Nc1ccccc1OC(=O)c1sc2cc(Cl)ccc2c1Cl
- IC50 (NADPH oxidase 1): > 17 µM (not active)

SMILES: Cc1nn(-c2ccccc2)c(Cl)c1C(=O)N1CCN(c2ncnc3c2cnn3-c2ccccc2)CC1
- EC50 [8]: 9.4 µM (active)
- EC50 [9]: 5.06 µM (active)
- AC50 (HEK293): 5.24 µM (active)
- EC50 [10]: 8.56 µM (active)

SMILES: CCn1c(SCC(=O)Nc2ccc(N(C)C)cc2)nnc1-c1cccc(C)c1
- EC50 [8]: 15.8 µM (active)
- EC50 [9]: > 195 µM (not active)
- EC50 [10]: > 20 µM (not active)
- IC50 [11]: 65.2 µM (active)

SMILES: CCc1ccc2nc(O)c(C3C(C#N)=C(N)Oc4c3ccc3cccnc43)cc2c1 (stereo not drawn)
- AC50 [12]: 6.07 µM (active)
- AC50 (INS1): 1.46 µM (active)
- EC50 [13]: 16.1 µM (active)
- EC50 (Streptokinase A): > 150 µM (not active)
- IC50 (Estrogen receptor): 11.3 µM (active)
- EC50 (Streptococcus): > 150 µM (not active)
- IC50 (Estrogen receptor beta [14]): 2.79 µM (not active)
- IC50 (Estrogen receptor beta [15]): 12 µM (active)
- IC50 (Nonstructural protein 1): 32.6 µM (active)

SMILES: COc1ccc2c(c1)c(=O)oc1cc3oc(C)c(C)c3cc12
- IC50 (Estrogen receptor): 6.9 µM (active)
- IC50 (Estrogen receptor beta [14]): 0.205 µM (not active)
- IC50 (Estrogen receptor beta [15]): 12.6 µM (active)

SMILES: CCOCCCNCc1ccc(OC)c(OC)c1
- EC50 [1]: > 79.4 µM (not active)
- EC50 [2]: > 79.4 µM (not active)
- EC50 [3]: > 79.4 µM (not active)
